This is an account of results in patent US8993574B2, “Pyrrole antifungal agents” (F2G Ltd, priority 2008, dated 2015).

In brackets after ≈: the same amount, converted by molar mass.

Common to all, as to format: cell-based
Assay [1] relates to Aspergillus fumigatus AF293. In words: MIC, YAG medium. Particulars: 24 h at 35° C, MIC banded into grades; for MIC: Aspergillus fumigatus, read-out: MIC grade, A. fumigatus. The procedure, abridged: (§1)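 Growth inhibition was measured by absorbance at 485 nm following 24 h at 35° C. Spores harvested after 5 days on Sabouraud agar served as inoculum (1−2×10^4 cfu/mL, YAG medium). The lowest drug level producing >70% inhibition was taken as MIC.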

Assay [2] concerns Aspergillus flavus. In words: MIC, YAG medium. The note with it: 24 h at 35° C, MIC banded into grades; for MIC: Aspergillus flavus, 24 h, read-out: MIC grade, A. flavus. The method in brief:
as §1

Assay [3] concerns Aspergillus fumigatus AF210. In words: MIC, YAG medium. Particulars: 24 h at 35° C, MIC banded into grades; for MIC: Aspergillus fumigatus, read-out: MIC grade, A. fumigatus 210. The procedure, abridged: as §1
Assay [4] relates to Aspergillus terreus AT49. In words: MIC, YAG medium. The note with it: 24 h at 35° C, MIC banded into grades; for MIC: Aspergillus terreus, read-out: MIC grade, A. terreus 49. The method in brief: as §1
The test system of assay [5] is Aspergillus niger. In words: MIC, YAG medium. The note with it: 24 h at 35° C, MIC banded into grades; for MIC: Aspergillus niger, read-out: MIC grade, A. niger. The method in brief:
as §1

The subject of assay [6] is Aspergillus terreus AT4. In words: MIC, YAG medium. Particulars: 24 h at 35° C, MIC banded into grades; for MIC: Aspergillus terreus, read-out: MIC grade, A. terreus. The procedure, abridged:
as §1

Assay [7] deals with Aspergillus fumigatus AF293. In words: MIC, RPMI medium. The note with it: for MIC: Aspergillus fumigatus, AF293, MIC banded into grades, read-out: MIC grade, A. fumigatus. The method in brief: (§2)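 Broth microdilution in RPMI with 2% glucose, 0.135 M MOPS pH 7.0; compounds as doubling dilutions, 50-0.05 mg/L, inoculum 1−2×10^4 cfu/mL. Incubated 24-48 h at 35° C; growth by OD 485 nm. MIC is lowest concentration giving >80% growth inhibition versus drug-free control.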

In assay [8] the test system is Aspergillus flavus. In words: MIC, RPMI medium. The note with it: MIC banded into grades; for MIC: Aspergillus flavus, read-out: MIC grade, A. flavus. The method in brief:
as §2

Assay [9] relates to Aspergillus fumigatus AF210. In words: MIC, RPMI medium. Particulars: for MIC: Aspergillus fumigatus, AF210, MIC banded into grades, read-out: MIC grade, A. fumigatus 210. The method in brief:
as §2

Assay [10] relates to Aspergillus terreus AT49. In words: MIC, RPMI medium. Particulars: for MIC: Aspergillus terreus, AT49, MIC banded into grades, read-out: MIC grade, A. terreus 49. The method in brief: as §2
Assay [11] concerns Aspergillus niger. In words: MIC, RPMI medium. The note with it: MIC banded into grades; for MIC: Aspergillus niger, read-out: MIC grade, A. niger. The method in brief: as §2
For assay [12], the system named is Aspergillus terreus AT4. In words: MIC, RPMI medium. The note with it: for MIC: Aspergillus terreus, AT4, MIC banded into grades, read-out: MIC grade, A. terreus. The method in brief:
as §2

Consider `COCCn1cc(-c2cccc(Cl)c2)cc1C(=O)C(=O)Nc1ccc(N2CCN(c3cc(C)cc(C)n3)CC2)cc1` [Example 71, 2-[4-(3-Chloro-phenyl)-1-(2-methoxy-ethyl)-1H-pyrrol-2-yl]-N-{4-[4-(4,6-dimethyl-pyridin-2-yl)-piperazin-1-yl]-phenyl}-2-oxo-acetamide], for which the MIC – broadly, the lowest concentration found to suppress growth – is greater than 10 µg/mL in assay [1]; greater than 10 µg/mL in the assay with Aspergillus flavus [2]; greater than 10 µg/mL in [3]; 1 to 10 µg/mL (≈ 1.75 to 17.5 µM) in the assay with Aspergillus terreus AT49 [4]; greater than 10 µg/mL in the assay on Aspergillus niger [5]; greater than 10 µg/mL in the assay on Aspergillus terreus AT4 [6]. Further, the MIC (in [7]; in the assay on Aspergillus flavus [8]; in assay [9]; in the assay on Aspergillus terreus AT49 [10]; in the assay with Aspergillus niger [11]; in the assay on Aspergillus terreus AT4 [12]) was greater than 10 µg/mL in each case.

For `Cc1cc(C)nc(N2CCN(c3ccc(NC(=O)C(=O)c4c(C5CCOCC5)cc(C)n4C)cc3)CC2)c1` [Example 15, N-{4-[4-(4,6-Dimethyl-pyridin-2-yl)-piperazin-1-yl]-phenyl}-2-[1,5-dimethyl-3-(tetrahydro-pyran-4-yl)-1H-pyrrol-2-yl]-2-oxo-acetamide], the MIC (in [1]; with Aspergillus flavus [2]; in assay [3]; in the assay on Aspergillus terreus AT49 [4]; with Aspergillus niger [5]; with Aspergillus terreus AT4 [6]) was less than 1 µg/mL throughout. For the same molecule, the MIC (in assay [7]; with Aspergillus flavus [8]; in assay [9]; in the assay with Aspergillus terreus AT49 [10]; in the assay on Aspergillus niger [11]; with Aspergillus terreus AT4 [12]) was less than 1 µg/mL in each case.

On to `COCCn1cc(-c2ccccc2Cl)cc1C(=O)C(=O)Nc1ccc(N2CCN(c3cc(C)cc(C)n3)CC2)cc1` [Example 58, 2-[4-(2-Chloro-phenyl)-1-(2-methoxy-ethyl)-1H-pyrrol-2-yl]-N-{4-[4-(4,6-dimethyl-pyridin-2-yl)-piperazin-1-yl]-phenyl}-2-oxo-acetamide], for which the MIC is 1 to 10 µg/mL (≈ 1.75 to 17.5 µM) in [1]; 1 to 10 µg/mL (≈ 1.75 to 17.5 µM) in the assay on Aspergillus flavus [2]; 1 to 10 µg/mL (≈ 1.75 to 17.5 µM) in assay [3]; 1 to 10 µg/mL (≈ 1.75 to 17.5 µM) with Aspergillus terreus AT49 [4]; greater than 10 µg/mL with Aspergillus niger [5]; 1 to 10 µg/mL (≈ 1.75 to 17.5 µM) in the assay with Aspergillus terreus AT4 [6]. In addition, the MIC (in [7]; in the assay on Aspergillus flavus [8]; in assay [9]; in the assay with Aspergillus terreus AT49 [10]; in the assay on Aspergillus niger [11]; in the assay on Aspergillus terreus AT4 [12]) was greater than 10 µg/mL each time.

With `COCCn1c(C)cc(-c2ccccc2)c1C(=O)C(=O)Nc1cccc2ncccc12` [Example 29, 2-[1-(2-Methoxy-ethyl)-5-methyl-3-phenyl-1H-pyrrol-2-yl]-2-oxo-N-quinolin-5-yl-acetamide], the MIC (in assay [1]; with Aspergillus flavus [2]; in assay [3]; in the assay on Aspergillus terreus AT49 [4]; in the assay on Aspergillus niger [5]; in the assay on Aspergillus terreus AT4 [6]) was greater than 10 µg/mL throughout. For the same molecule, the MIC (in [7]; in the assay on Aspergillus flavus [8]; in [9]; in the assay on Aspergillus terreus AT49 [10]; in the assay with Aspergillus niger [11]; in the assay on Aspergillus terreus AT4 [12]) was greater than 10 µg/mL each time.

Regarding `Cc1cc(C)nc(N2CCN(c3ccc(NC(=O)C(=O)c4c(-c5ccccc5)cc(C)n4C)cc3COCCCN3CCN(C)CC3)CC2)c1` [Example 19, 2-(1,5-Dimethyl-3-phenyl-1H-pyrrol-2-yl)-N-{4-[4-(4,6-dimethyl-pyridin-2-yl)-piperazin-1-yl]-3-[3-(4-methyl-piperazin-1-yl)-propoxymethyl]-phenyl}-2-oxo-acetamide], the MIC in [1] was greater than 10 µg/mL; with Aspergillus flavus [2], 1 to 10 µg/mL (≈ 1.48 to 14.8 µM); in assay [3], greater than 10 µg/mL; in the assay on Aspergillus terreus AT49 [4] it was 1 to 10 µg/mL (≈ 1.48 to 14.8 µM); with Aspergillus niger [5], greater than 10 µg/mL; with Aspergillus terreus AT4 [6], greater than 10 µg/mL. The MIC (in [7]; with Aspergillus flavus [8]; in [9]; with Aspergillus terreus AT49 [10]; in the assay with Aspergillus niger [11]; in the assay with Aspergillus terreus AT4 [12]) was greater than 10 µg/mL throughout.

As to `Cc1cc(-c2ccccc2)c(C(=O)C(=O)Nc2ccc(N3CCN(C(=O)C(C)C)CC3)cc2)n1C` [Example 145, 2-(1,5-Dimethyl-3-phenyl-1H-pyrrol-2-yl)-N-[4-(4-isobutyryl-piperazin-1-yl)-phenyl]-2-oxo-acetamide], the MIC (in [1]; in the assay on Aspergillus flavus [2]; in assay [3]; in the assay with Aspergillus terreus AT49 [4]; with Aspergillus niger [5]; in the assay on Aspergillus terreus AT4 [6]) was less than 1 µg/mL throughout. In addition, the MIC in [7] was less than 1 µg/mL; in the assay on Aspergillus flavus [8], less than 1 µg/mL; in assay [9] it was less than 1 µg/mL; in the assay with Aspergillus terreus AT49 [10] it was less than 1 µg/mL; in the assay on Aspergillus niger [11] it was 1 to 10 µg/mL (≈ 2.12 to 21.2 µM); in the assay on Aspergillus terreus AT4 [12], less than 1 µg/mL.

On to `Cc1cc(C)nc(N2CCN(c3ccc(NC(=O)C(=O)c4c(-c5ccccc5)cc(C)n4C)cc3COCCN(C)C)CC2)c1` [Example 17, N-{3-(2-Dimethylamino-ethoxymethyl)-4-[4-(4,6-dimethyl-pyridin-2-yl)-piperazin-1-yl]-phenyl}-2-(1,5-dimethyl-3-phenyl-1H-pyrrol-2-yl)-2-oxo-acetamide], for which the MIC (in assay [1]; in the assay on Aspergillus flavus [2]; in assay [3]; in the assay on Aspergillus terreus AT49 [4]; in the assay with Aspergillus niger [5]; in the assay on Aspergillus terreus AT4 [6]) was 1 to 10 µg/mL (≈ 1.64 to 16.4 µM) in each case. The MIC (in assay [7]; with Aspergillus flavus [8]; in assay [9]; with Aspergillus terreus AT49 [10]; with Aspergillus niger [11]; in the assay with Aspergillus terreus AT4 [12]) was greater than 10 µg/mL in each case.

With `Cc1cc(C)nc(N2CCN(c3ccc(NC(=O)C(=O)c4c(-c5ccccc5)cc5n4CCCCC5)cc3)CC2)c1` [41 a], the “MIC grade, A. fumigatus” value is reported as 3 (A grade of 3 represents an MIC of less than 1 mg/L) in assay [1] and 2 (A grade of 2 represents an MIC of from 1 to 10 mg/L) in [7] (MIC banded into grades). In addition, the “MIC grade, A. flavus” value is 3 (A grade of 3 represents an MIC of less than 1 mg/L) against Aspergillus flavus [2] and 1 (a grade of 1 represents an MIC of greater than 10 mg/L) against Aspergillus flavus [8]. Moreover, the “MIC grade, A. fumigatus 210” value in assay [3] is 3 (A grade of 3 represents an MIC of less than 1 mg/L); in [9] (MIC banded into grades), 1 (a grade of 1 represents an MIC of greater than 10 mg/L). Further, the “MIC grade, A. terreus 49” value against Aspergillus terreus AT49 [4] and against Aspergillus terreus AT49 [10] (MIC banded into grades) was 3 (A grade of 3 represents an MIC of less than 1 mg/L) each time. The “MIC grade, A. niger” value is given as 3 (A grade of 3 represents an MIC of less than 1 mg/L) in the assay on Aspergillus niger [5] and 1 (a grade of 1 represents an MIC of greater than 10 mg/L) against Aspergillus niger [11]. The “MIC grade, A. terreus” value with Aspergillus terreus AT4 [6] is listed as 3 (A grade of 3 represents an MIC of less than 1 mg/L); with Aspergillus terreus AT4 [12] (MIC banded into grades) it was 2 (A grade of 2 represents an MIC of from 1 to 10 mg/L).

Regarding `COCCOCn1c(C)cc(-c2ccccc2)c1C(=O)C(=O)Nc1ccc(N2CCN(c3cc(C)cc(C)n3)CC2)cc1` [Example 138, N-{4-[4-(4,6-Dimethyl-pyridin-2-yl)-piperazin-1-yl]-phenyl}-2-[1-(2-methoxy-ethoxymethyl)-5-methyl-3-phenyl-1H-pyrrol-2-yl]-2-oxo-acetamide], the MIC in assay [1] was less than 1 µg/mL; in the assay with Aspergillus flavus [2] it was 1 to 10 µg/mL (≈ 1.72 to 17.2 µM); in [3] it was less than 1 µg/mL; in the assay with Aspergillus terreus AT49 [4], less than 1 µg/mL; in the assay on Aspergillus niger [5], less than 1 µg/mL; in the assay with Aspergillus terreus AT4 [6], less than 1 µg/mL. The MIC in [7] was less than 1 µg/mL; in the assay on Aspergillus flavus [8], 1 to 10 µg/mL (≈ 1.72 to 17.2 µM); in assay [9], less than 1 µg/mL; with Aspergillus terreus AT49 [10] it was 1 to 10 µg/mL (≈ 1.72 to 17.2 µM); in the assay on Aspergillus niger [11], 1 to 10 µg/mL (≈ 1.72 to 17.2 µM); with Aspergillus terreus AT4 [12], 1 to 10 µg/mL (≈ 1.72 to 17.2 µM).
